Test results from the pKa sets of Baltruschat and Czodrowski (2020).
Where a SMILES comes first, the peptide text is derived from it.

Settings: acidic group

Structure (SMILES) | pKa
N#Cc1c(-c2nc3ccccc3s2)c(=O)oc2cc(O)ccc12 | 6.38
O=S(=O)([O-])c1c(O)ccc2cn[nH]c12 | 9.45
O=C(O)c1ccccc1-c1ccccc1 | 3.46
O=C(O)c1cccc([N+](=O)[O-])c1O | 2.16
COc1cc(S(C)=O)ccc1-c1nc2nnccc2[nH]1 (configuration not stated) | 8.71
CNc1nc(SC)nc2[nH]ncc12 | 11.4
O=C(O)C1=C(CO)CC1 | 4.16
[NH3+]C(Cc1n[nH]c2ccccc12)C(=O)O (configuration not stated) | 2.2
O=C(O)[C@@H]1C[C@@H]1Br | 4.09
NC(=O)c1cc(-c2ccccc2)nnc1NCCN1CCOCC1 | 6.85
N#CC(C#N)=NNc1cccc(Cl)c1 | 6
CC(C)C([NH2+]c1ccccc1)C(=O)O (configuration not stated) | 4.4
Cc1cc(O)[nH+]c2c1CCO2 | 2.42
O=C(O)Cc1ccc(-c2ccccc2)cc1 | 4.46
N#CC(C#N)=C(O)c1ccc(N)cc1 | 4.28
O=c1cc(O)c2ccccc2o1 | 4.1
[O-]c1c(O)cccc1O | 11.2
Oc1cccc2cn[nH]c12 | 8.6
CCCNC(O)=S | 0.52
Cc1cccc(C(=O)O)c1O | 3.02
O=[N+]([O-])c1ccc(/C=N/O)cc1 | 10
CC1=CC(C)(C)SC(=S)N1 | 10.9
O=C(O)[C@@H]1CCC[C@H](O)C1 | 4.6
CS(=O)(=O)NC(N)=O | 5.1
Cc1cc(O)c(C(C)C)cc1C | 10.8
COc1ccc(O)cc1[N+](=O)[O-] | 8.68
O=[N+]([O-])c1cc(Br)c(O)c(Br)c1 | 3.7

Structure (SMILES) | pKa
Cc1ccc(C(=O)O)cc1O | 4.32
O=C(O)c1ccccc1Br | 2.93
Cc1cc(C#N)cc[n+]1O | -0.67
Oc1[nH+]ncc2ccccc12 | -2
O=C(O)C[NH2+]CCc1nnn[nH]1 | 3.28
O=C(O)CSc1ccc(S)cc1 | 3.77
Cc1c(Cn2cc[nH+]c2)sc2ccc(C(=O)O)cc12 | 3.82
Cc1cc(=O)oc2cc(O)ccc12 | 7.8
Cc1cccc(C[N+](=O)[O-])c1 | 6.97
O=C(O)C1COCCO1 (configuration not stated) | 3.15
CCCC(C)C1C(=O)NC(=S)N=C1[O-] (configuration not stated) | 11.4
COc1c(C(=O)O)oc2ccccc12 | 3.7
Cc1cc[nH]c1C(=O)O | 5.1
CC(=O)CC(=O)Nc1ccc(C)cc1 | 10.2
CO[C@H]1C[C@H]1C(=O)O | 4.76
CC(CC(=O)O)C(N)=O (configuration not stated) | 4.59
Sc1cccc2ncccc12 | 6.48
CCOC(=O)C(Cc1ccc(C)cc1)C(C)=O (configuration not stated) | 11.9
NS(=O)(=O)c1ccc(/N=C/c2ccccc2[O-])cc1 | 11.7
Oc1c(Br)cccc1Br | 6.6
CCC(=O)OO | 8.1
O=C(O)C(c1ccc(-c2ccccc2)cc1)C(O)c1ccccc1 (configuration not stated) | 4.25
C/C(=N/O)c1ccc([O-])cc1O | 9.72
O=C(O)C[Se]c1ccccc1 | 3.75
O=[N+]([O-])c1ccc2ccc(O)cc2c1 | 8.81
COc1ccc2c3c([nH]c2c1)C(C)NCC3 (configuration not stated) | 15.6
Cc1ccc(/C=N/O)cc1 | 10.9

Structure (SMILES) | pKa
O=C1O[C@@H]([C@H](O)[C@@H](O)[C@@H](O)CO)C([O-])=C1O | 12
O=C(O)CC(=O)/C=N/O | 3.5
O=CC1CCCCC1=O (configuration not stated) | 6.35
O=C(O)[C@@H]1CC[C@@H](C(=O)O)[Se]1 | 3.46
Cc1noc(NS(=O)(=O)c2ccc(N)cc2)c1C | 4.16
CCC1(C)CC(=O)NC1=O (configuration not stated) | 9.34
O/N=C1\CCCC\C1=N/O | 10.5
CN(O)C(=O)C(C)(C)C | 9.94
O=C(O)C1(C(=O)O)CCCC1 | 3.24
CCC[NH2+]CC(=O)O | 2.31
CN(C)c1ncnc2[nH]ncc12 | 11
O=C(O)[C@H]1CC[C@H](O)CC1 | 4.68
CC(C)(C)c1ccc(C(=O)/C=C/C(=O)O)cc1 | 3.42
Nc1ccc(S(=O)(=O)Nc2ccn(-c3ccccc3[N+](=O)[O-])n2)cc1 | 7
C[NH+](C)Cc1ccc(NC(=O)/C=N/O)cc1 | 8.43
O=P1(O)CCCC1 | 2.51
Cc1c(C)c(O)c(C)c(C)c1O | 11.3
O=C(O)c1cc2ccccc2cc1O | 2.71
CCNc1cc[nH+]c(S)n1 | 3.1
CNCC(N)=O | 8.35
Cc1cccc(C(=O)[O-])c1O | 14.4
CCCCNc1cc[nH+]c(S)n1 | 3.2
Cc1ccccc1NC(=S)c1ccccc1 | 10.2
CC(C)CC(N)C(=O)NC(CC(N)=O)C(=O)O (stereo not drawn) (H-Leu-Asn-OH; configuration not given here) | 8.23
SCc1ccccc1 | 9.43

Same assay, conditions: basic group

Structure (SMILES) | pKa
CCOC(=O)c1cnc2ccccc2c1OCC | 3.88
CC(=O)Nc1ccc(C2CCC[NH+]2C)cn1 (configuration not stated) | 2.2
Cc1nnc(C)c(C)c1C | 5.36
CC(C)NC[Si](C)(C)C | 10.8
CC1CCCCN1C (configuration not stated) | 10.3
CCCN(C)N | 7.35
CC1(C)OC(=O)C[C@H]2[C@@H](C(=O)[O-])NC[C@H]21 | 9
Cc1ccnnc1C | 4.1
Cn1/c(=N/N)ccc2ccccc21 | 9.17
CC(C)CNCC(=O)[O-] | 10.1
Cn1cncc1C[C@H](NC(=O)CCN)C(=O)[O-] | 9.53
COc1cc(S(C)=O)ccc1-c1nc2nnccc2[nH]1 (configuration not stated) | 3.63
CNc1nc(SC)nc2[nH]ncc12 | 3.61
CC1(C)S[C@H]2C(C(=O)[O-])N=C(CCCC(N)C(=O)[O-])N2C1C(=O)[O-] (some centres not stated) | 10.3
C1=C(c2ccccc2)C2CCN1CC2 | 9.1
CC(=O)N(N=C(C)C)C1CCN(C)CC1 | 8.6
N#CC(C#N)=NNc1cccc(Cl)c1 | -0.78
Cc1cc(C)c(CO)c(C)n1 | 7.1
Cc1cnc2c(cc(C)c3cccnc32)c1C | 5.93
c1ccc(C2=NCCN2)nc1 | 8.98
[O-][n+]1cccc2ccccc21 | 0.7
CCNCC[NH2+]CC | 7.7
Cc1c[nH]cn1 | 7.51
CCOC(=O)c1cccnc1 | 3.2
CN(C)c1nc2c(s1)CCCC2 | 6.16

Structure (SMILES) | pKa
C[C@H](N)[C@H](O)c1ccccc1 | 8.81
Cc1ccncc1C | 6.53
C#CC(C)(C)NC(C)(C)C#C | 6.45
COc1cccnn1 | 2.52
CC[C@]1(O)C[C@H](C)N[C@@H]2CCCC[C@H]21 | 10.1
c1ccc(-c2ccc3ccc4cccnc4c3n2)cc1 | 4.9
Cn1cncc(-c2ccccc2)c1=O | 1.5
Cc1ccc(NCO)cc1 | 3.42
CN(C)C[C@@H]1[C@H](CO)[C@H]2C=C[C@@H]1C2 | 9.54
Cc1ccc2nc3ccc(N)cc3nc2c1 | 4.8
Nc1ccc2nc3cc(N)ccc3cc2c1 | 8.11
CC(=O)Oc1ccccc1C(=O)NCC(=O)O | 3.77
CCOCCn1c(CN2CCCN(CCCCn3cc(C(=O)[O-])cn3)CC2)nc2ccccc21 | 9.1
OC[C@H]1CCN2CCC[C@@H]12 | 10.9
Cc1cccnn1 | 3.46
CCN(CC)CCNc1nc(C)nc(Nc2ccc(Cl)cc2)n1 | 9.3
C1CNCCNCCNC1 | 11.7
CC(Cl)CN(C)C (configuration not stated) | 8.12
[O-]c1nccc2c1cnc1ccccc12 | 11.3
NNC(=O)c1ccc(N)cc1 | 3.56
CN(C)CCC(=O)C(C)(C)C | 9.49
O=[N+]([O-])c1cccc2cn[nH]c12 | -0.83
O=C1CC2OCC=C3C4CC5N(CCC56c5ccccc5N1C6C24)[C@H]3S(=O)(=O)[O-] (some centres not stated) | 3.2
CN(C)CCCN=C(c1ccccc1)c1ccccc1 | 9.4
C#CCCCCCCN | 10.7

Structure (SMILES) | pKa
CN(C)CC(C)(C)CN | 10.1
[O-]c1nncc2ccccc12 | 12
OCNc1ccc(Cl)cc1 | 2.22
CN1C2CCC(CC2)N1C | 7.14
CC(C)([Se-])CN | 10.9
COc1ccc2nccc(C(O)C3CCCC[NH2+]3)c2c1 (configuration not stated) | 4.34
[O-]c1ccnc2nccnc12 | 8.78
C[Se](C)=O | 2.55
O=C([O-])c1cccnc1 | 4.83
c1ccc2nc3ccccc3nc2c1 | 1.31
O=C([O-])c1ccc2ncccc2c1 | 4.82
CN(CO)c1ccccc1 | 3.72
CC(C)(C)N1NC2CCC1C2 (configuration not stated) | 9.12
O=C(Nc1ccccn1)c1ccccc1 | 3.33
Nc1ccc2c(c1O)Cc1ccccc1-2 | 4.82
CCCCCCCCCCCN | 10.6
NCCCCCCO | 10.6
CCCCCCCCCCCCCNCCCCCCCCCCCCC | 11
CN(C)c1cccc2ccccc12 | 4.83
C[C@@H]1CC[C@@H]2CCCN21 | 12
[NH3+]c1ccc(-c2nc3ccccc3s2)cc1 | 0.1
CC(C)NCC(O)c1cccc(F)c1 (configuration not stated) | 9.48
CN1CCCC2CCN=C21 (configuration not stated) | 11.5
NCCc1ccncc1 | 9.37
Nc1ccc(/N=N/c2ccccc2)cc1 | 2.82

Structure (SMILES) | pKa
CC(C)CN | 10.4
CCN(CC)CCCNS(=O)(=O)c1ccc(OC)c(OC)c1OC | 9.54
CCCNCc1ccc(C)cc1 | 9.98
CN(C)c1ncnc2[nH]ncc12 | 4.53
CNCCNCCN | 10.2
NCCCCCCCCCCC(=O)[O-] | 11
CN(C)Cc1cccc(NC(=O)/C=N/[O-])c1 | 9.12
Nc1ncnc2c1cnn2-c1ccccc1 | 3.89
Nc1cncnc1 | 2.83
C[NH+](C)CCC/N=C(\c1ccccc1)c1ccccc1-c1ccccc1 | 4.43
CCc1cc(Cl)c(OC)c(C(=O)NC[C@H]2CCCN2CC)c1[O-] | 9.77
C1CSCN1 | 6.31
C(=C/c1ccncc1)/c1ccncc1 | 5.57
CC(C)NCC(=O)[O-] | 10.1
[S-]c1ccc2ccccc2n1 | 10.2
O=[N+]([O-])c1ccc2cn[nH]c2c1 | 0.66
CC(=O)n1cnc2ccccc21 | 1.8
Nc1ncc(-c2ccccc2)s1 | 4.9
CCC(C)C(=O)CCN1CCOCC1 (configuration not stated) | 7.07
C/N=c1/oc2c(n1C)CCCC2 | 10.2
CN1CC[C@@]23c4c5ccc(O)c4O[C@]2(C)C(=O)CC[C@@H]3[C@@H]1C5 | 8.08
Cc1ccccc1C(=NCCC[NH+](C)C)c1ccccc1C | 4.3
Nc1ncc2[nH]c[nH+]c2n1 | -0.28
